Reference: patent publication US20220071941A1, “THERAPIES FOR SQUAMOUS CELL CARCINOMAS” (Kura Oncology, Inc., priority 2018, published 2022)

System: squamous head and neck cancer with HRAS mutations
Assay: Phase II study of tipifarnib in subjects with HRAS mutant tumors (HNSCC cohort)
Assay type: in vivo, human
Procedure: A Phase II study was performed that investigated the antitumor activity, in terms of objective response rate, of tipifarnib in subjects with locally advanced, unresectable or metastatic, relapsed and/or refractory tumors that carry HRAS mutations and for whom there is no curative therapy available. Subjects were men and women over 18 years of age.
Inclusion criteria of the study were as follows: histologically or cytologically confirmed diagnosis of thyroid cancer (cohort 1) or squamous head and neck cancer (cohort 2) for which there is no curative therapy available; tumor that carries a missense HRAS mutation; subject consents to provide at least 10 unstained tumor slides for retrospective testing of HRAS gene tumor status; subject has measurable disease according to RECIST v1.1 and has relapsed or is refractory to prior therapy; at least 2 weeks since the last systemic therapy or radiotherapy regimen prior to enrolment; ECOG PS 0 or 1; acceptable liver function; acceptable renal function; and acceptable hematologic status.
Exclusion criteria of the study were as follows: prior treatment with an FTase inhibitor; history of relevant coronary heart disease or myocardial infarction within last 3 years, NYHA Grade III or greater congestive heart failure, cerebro-vascular attack within the prior year, or serious cardiac arrhythmia requiring medication except atrial fibrillation; known uncontrolled brain, leptomeningeal or epidural metastases (unless treated and well controlled for at least 4 weeks prior to Cycle 1 Day 1); controlled brain metastases that require continuous high dose corticosteroid use within 4 weeks of Day 1; non-tolerable>Grade 2 neuropathy or evidence of unstable neurological symptoms within 4 weeks first dose; major surgery, other than diagnostic surgery, within 4 weeks prior to first dose, without complete recovery; active, uncontrolled bacterial, viral, or fungal infections, requiring systemic therapy; or known infection with HIV, or an active infection with hepatitis B or hepatitis C.
The study comprised 36 participants and subjects were enrolled into two nonrandomized cohorts as follows: Cohort 1 was comprised of patients with malignant thyroid tumors with HRAS mutations; Cohort 2 was comprised of patients with squamous head and neck cancer with HRAS mutations. Patients received tipifarnib at a starting dose of 600-900 mg orally twice daily on days 1-7 and 15-21 of 28-day cycles.
The primary outcome measurement of the study was objective response rate. Additionally, progression-free survival, duration of response, and the number of subjects with adverse events and serious adverse events were also recorded as secondary outcome measures. Adverse events and serious adverse events were graded according to the NCI-CTCAE (Version 4.03).
Upon meeting the primary objective (objective response rate), the study was amended to continue enrollment of HNSCC patients (Cohort 2) in addition to patients with other SCCs (Cohort 3). These patients had tumors carrying high HRASm variant allele frequency (VAF >35% or if baseline serum albumin is >3.5 g/dL)

[1] = of the 15 HNSCC patients meeting HRASm VAF criteria

Cn1cncc1[C@@](N)(c1ccc(Cl)cc1)c1ccc2c(c1)c(-c1cccc(Cl)c1)cc(=O)n2C [tipifarnib] was tested, and the overall response rate (15 HNSCC patients meeting HRASm VAF criteria, starting dose 600-900 mg orally twice daily on days 1-7 and 15-21 of 28-day cycles) was 53%, the “median progression-free survival (PFS), patients experiencing SD” value (95% CI 1.6 to 5.4 months) was 4.5 months and the “median progression-free survival (PFS), patients experiencing a PR” value (95% CI 5.3 to 19.5 months) was 19 months. For the same compound, the “overall median progression-free survival (PFS)” value (N=15, 95% CI 4.5 to 19.5 months) was 5.4 months, the “patients with at least 1 treatment-emergent adverse event (TEAE)” value (graded according to NCI-CTCAE Version 4.03) was “All patients” and the “most frequently observed drug-related Grade >3 TEAEs” value (occurring in ≥10% patients) was “blood and lymphatic system disorders, gastrointestinal disorders, and renal disorders”. For the same compound, the “confirmed partial responses (PR), number of patients” value [1] was 8 and the “stable disease (SD), number of patients” value [1] was 5.
